Measured values as given in patent US9328141B2, “Polypeptides for the treatment or prevention of cancer and uses thereof” (WUHAN KATYGEN PHARMACEUTICALS, INC., priority 2010, dated 2016).

Test system: colon tumor 26
Experiment: Anti-cancer effect in vivo, transplanted colon tumor 26 in mice
Design: species or system BALB/c male mouse
Conditions: cisplatin 1 mg/kg ipx 5, Day 11
Description: The tumors were excised and weighed.
Combine index (CI), CI=AB/(A×B). AB is the T/C of the combined effects of two drugs, A, B either is the T/C of the effect of one drug (when CI<1, these two drugs have combination).

`N.N.[Cl][Pt][Cl]` [Cisplatin, cisplatin] was tested, and the The inhibitive rate was 44% and the “tumor weight x ± s” value was 1.39 ± 0.39 g.
